A short description of the series: Distribution and quantification of propranolol in whole-body mouse sections by MALDI mass spectrometry imaging. It is filed as in vivo. The conditions noted are these: 7.5 mg/kg intravenous, 20 minutes post-injection, sagittal whole-body section, TEC-normalized.

Here are results for one molecule from patent US9182409B2, “Mass spectrometry imaging method for detecting and quantifying a target molecule in a tissue sample” (priority 2011, dated 2015).

Procedure: Male Swiss mice weighing 25-40 g (Charles River, France) were used.
The animals were sacrificed by CO2 asphyxiation at 20 minutes post-injection.
The samples (control and dosed tissue) were sectioned into 20 μm-thick layers using a CM1510S cryostat (Leica Microsystems, Nanterre, France) cooled at −26° C. The sections were then deposited on conductive ITO (indium tin oxide) slides (Bruker Daltonics, Bremen, Germany).
This matrix was prepared at a concentration of 40 mg/ml in methanol/0.1% TFA (1:1, v/v). The matrix solution was deposited using the SunCollect spraying system (SunChrome, Germany).
This range of dilutions extends from 10 pmol/μl to 0.02 pmol/μl and includes seven points.
The images were obtained using an AutoFlex Speed MALDI-TOF mass spectrometer (Bruker Daltonics, Bremen, Germany) equipped with a Smartbeam laser. The data was generated in positive reflectron mode. A total of 700 spectra were obtained for each spot with a 1000 Hz laser frequency and a 300×300 μm′ image spatial resolution on a mass range of 100 Da to 1000 Da. The FlexImaging version 2.1 software was used to reconstruct the images.

Consider `CC(C)NCC(O)COc1cccc2ccccc12` (stereo not shown) [propranolol, Propranolol], for which the “total quantity of the target analyte in the brain” value is “about 5 ng”.
